Measured values from patent publication US20140271649A1, “METHODS AND COMPOSITIONS FOR INHIBITING STAPHYLOCOCCUS AGGLUTINATION IN BLOOD” (The University of Chicago, priority 2011, published 2014).

What was measured:
[1] = in vivo, sc; cited from earlier work
Coa-prothrombin [2] = experiment: Coagulase activity: fibrinogen to fibrin conversion by Coa-prothrombin; type: biochemical, S. aureus / human; conditions: 200 ng argatroban, absorbance at 450 nm
Method: (§1) Coagulase activity. Purified recombinant Coa or vWbp (100 nM) were mixed with human prothrombin (Innovative Research) in 1% sodium-citrate/PBS. After an initial reading, fibrinogen (3 μM) (Sigma) was added and conversion of fibrinogen to fibrin was measured as an increase in turbidity at 450 nm in a plate reader (BioTek) at 2.5 min intervals. As controls, the enzymatic activity of human alpha-thrombin (Innovative Research) or prothombin alone were measured. Argatroban (200 ng, Novaplus) was added to reactions prior to the addition of fibrinogen.

vWbp-prothrombin = molecular target: T1, vWbp-prothrombin (Homo sapiens, UniProt P00734); experiment: Coagulase activity: fibrinogen to fibrin conversion by vWbp-prothrombin; type: biochemical, S. aureus / human; conditions: 200 ng argatroban, absorbance at 450 nm
T1 construct: purchased Innovative Research (prothrombin); host or cells: vWbp made in house in E. coli BL21(DE3), Ni-NTA purified
Method: as §1

S. aureus N315 [3] = experiment: Agglutination assay in plasma, MRSA N315; type: cell-based, Staphylococcus aureus; conditions: argatroban (1 mg/mL), OD550 after two hours
human alpha-thrombin = human alpha-thrombin (Homo sapiens, UniProt P00734); experiment: Coagulase activity control: fibrinogen to fibrin conversion by thrombin; type: biochemical; conditions: 200 ng argatroban, absorbance at 450 nm, compared to mock control
Method: as §1

Coa-prothrombin [4] = conditions: literature (Hijikata-Okunomiya and Kataoka, 2003; Vanassche et al., 2010); cited from earlier work
S. aureus MW2 [5] = experiment: Agglutination assay in plasma, MRSA MW2; type: cell-based, Staphylococcus aureus; conditions: argatroban (1 mg/mL), OD550 after two hours
S. aureus Newman [6] = experiment: Agglutination assay in plasma, S. aureus Newman; type: cell-based, Staphylococcus aureus; conditions: argatroban treatment, increasing concentrations
Method: Agglutination assay. Overnight cultures of staphylococcal strains were washed in 1 mL 0.85% NaCl and suspended to a final concentration of OD600 4.0 in 1 mL. Bacteria were incubated with 1:500 Syto9 (Invitrogen) for 15 minutes, washed with 1 mL 0.85% NaCl, and suspended in 1 mL saline. Bacteria were mixed 1:1 with EDTA-chelated rabbit plasma (Becton, Dickinson) on a glass microscope slide and incubated for 15 minutes. Samples were viewed and images captured on an Olympus Provis microscope using a 40× objective. For quantification of agglutination, plasma and bacteria were inoculated onto polystyrene C-Chip disposable hemocytometer slides (IN-CYTO). […] For analysis, the largest aggregate in each field of view was outlined in ImageJ and the area of that aggregate measured. Mean area of S. aureus aggregates were determined and normalized by subtracting Newman in saline without plasma from all values. Percent agglutination was calculated by normalizing all mean intensity values to S. aureus Newman in plasma. […] Fold change in agglutination was calculated as the ratio of mean bacterial aggregation area in the presence of antibody compared to control. Statistical significance, P<0.05, was determined by one way analysis of variance (ANOVA), with Dunnett's multiple comparison analysis for post-hoc testing using GraphPad Prism software. […]

S. aureus Newman [7] = experiment: Mouse sepsis survival, S. aureus Newman challenge; type: in vivo, BALB/c mice; conditions: 10 mg/kg i.p. in 12 hour intervals, mock treated died within 60 hours
S. aureus Newman [8] = experiment: Heart tissue histopathology 12 hours after S. aureus Newman infection; type: in vivo, BALB/c mice
clfA (pclfA) variant = experiment: Mouse sepsis survival, clfA (pclfA) variant challenge; type: in vivo, BALB/c mice
Method: (§2) Sepsis. Overnight cultures of staphylococcal strains were diluted 1:100 into fresh TSB and grown until they reached an OD600 of 0.4. Bacteria were centrifuged at 7,000×g, washed, and suspended in the one-tenth volume of PBS. Six week-old female BALB/c mice (n=15) (Charles River) were injected retro-orbitally with 1×10^8 CFU (S. aureus Newman, MW2, and N315) or 5×10^7 CFU (S. aureus USA300) suspensions in 100 μl of PBS. Mice were monitored for survival over 10 days. To enumerate staphylococcal load in heart tissue twelve hours post-infection, mice were euthanized by CO2 asphyxyation and hearts were removed during necropsy. Heart tissue was homogenized in PBS, 0.1% Triton X-100. Serial dilutions of homogenate were spread on TSA and incubated for colony formation. The bacterial load in organ tissue was analyzed in pairwise comparisons between wild-type and mutant strains with the unpaired two-tailed Student's t-test. For histopathology, mice infected with S. aureus were euthanized 12 hours after infection. Hearts were removed during necropsy and fixed in 10% formalin for 24 hours at room temperature. […] Data were analyzed in pairwise comparisons between wild-type and mutant strains with the unpaired two-tailed Student's t-test. […]
(§3) Dabigatran etexilate treatment. […] Thrombin time was measured on a STA-R analyzer (Diagnostica Stago).

S. aureus USA300 LAC = experiment: Mouse sepsis survival, S. aureus USA300 LAC challenge; type: in vivo, BALB/c mice; conditions: 10 mg/kg i.p. every 12 h; lethal dose S. aureus USA300 LAC; vs mock
Method: as §2, §3

clfA mutant S. aureus = experiment: Mouse sepsis survival, clfA mutant challenge; type: in vivo, BALB/c mice
Method: as §2, §3

S. aureus coa/vwb mutant = experiment: Mouse sepsis survival, S. aureus coa/vwb mutant challenge; type: in vivo, BALB/c mice; conditions: 10 mg/kg i.p. every 12 h, vs mock
Method: as §2, §3

[9] = Serum IgG after active immunization (ELISA); type: in vivo, BALB/c mice; conditions: 50 μg protein in CFA, boost in IFA
S. aureus MW2 [10] = experiment: Mouse sepsis survival, MRSA MW2 challenge; type: in vivo, BALB/c mice; conditions: lethal challenge S. aureus MW2; Dbg 10 mg/kg, antibodies 5 mg/kg
S. aureus N315 [11] = experiment: Mouse sepsis survival, MRSA N315 challenge; type: in vivo, BALB/c mice; conditions: lethal challenge S. aureus N315; Dbg 10 mg/kg, antibodies 5 mg/kg

For `N=C(N)c1ccc(CNC(=O)[C@@H]2CCN2C(=O)[C@H](NCC(=O)O)C2CCCCC2)cc1` [melagatran], the “dose at which toxicity began” value [1] is given as “over 5 mg”.

In the case of `CC1CNc2c(cccc2S(=O)(=O)N[C@@H](CCCNC(=N)N)C(=O)N2CC[C@@H](C)C[C@@H]2C(=O)O)C1` (some centres unmarked) [argatroban], the “conversion of fibrinogen to fibrin by Coa-prothrombin” value (Coa-prothrombin [2]) is reported as “blocked”, the “conversion of fibrinogen to fibrin by vWb-prothrombin” value (vWbp-prothrombin) is reported as “blocked” and the “agglutination of S. aureus N315 in EDTA-plasma” value (S. aureus N315 [3]) is reported as “inhibited”. For the same molecule, the “conversion of fibrinogen to fibrin by thrombin” value (human alpha-thrombin) was “blocked”, the “inhibition of the proteolytically active Coa-prothrombin complex” value (Coa-prothrombin [4]) was “inhibit” and the “agglutination of S. aureus MW2 in EDTA-plasma” value (S. aureus MW2 [5]) was “inhibited”. The “agglutination of S. aureus Newman in plasma” value (S. aureus Newman [6]) was “interfered with the agglutination”.

For `CCCCCCOC(=O)N=C(N)c1ccc(NCc2nc3cc(C(=O)N(CCC(=O)OCC)c4ccccn4)ccc3n2C)cc1` [dabigatran-etexilate], the survival after challenge (S. aureus Newman [7]) was “up to 132 hours”, the “agglutination of staphylococcus in heart tissue” value (S. aureus Newman [8]; dabigatran-etexilate treatment, S. aureus Newman, 12 hours, histopathology) was “reduced agglutination” and the “benefit from treatment (time-to-death)” value (clfA (pclfA) variant) was “benefited”. The “survival of septic mice” value (S. aureus USA300 LAC) was “prolonged the survival”, the survival and time-to-death (clfA mutant S. aureus; clfA mutant challenge compared to control strain harboring pclfA) was “increased the survival and time-to-death” and the disease outcome (clfA mutant S. aureus; clfA mutant challenge compared to mock treated mice) was “further improved the disease outcome”. The survival or time-to-death (S. aureus coa/vwb mutant) was “no effect”.

In the case of “ClfA: purified recombinant S. aureus clumping factor A; used in binding assay and as antigen for active immunization”, the “frequency of heart lesions” value (S. aureus Newman [8]; active immunization, challenged twelve hours with wild-type S. aureus Newman) is reported as “reduced the frequency of heart lesions” and the “specific IgG antibodies after active immunization” value [9] is reported as “raised specific IgG antibodies”.

For `[H]/N=C(/N)c1ccc(NCc2nc3cc(C(=O)N(CCC(=O)O)c4ccccn4)ccc3n2C)cc1` [dabigatran], the “time-to-death / survival during sepsis” value (S. aureus MW2 [10]) is listed as “did not prolong the survival”, the “time-to-death / survival during sepsis” value (S. aureus N315 [11]) is listed as “did not prolong the survival” and the “inhibition of the proteolytically active Coa-prothrombin complex” value (Coa-prothrombin [4]) is listed as “inhibit”.
